In publication PMC12010937, “Evaluation of FXR Activity in Pollutants Identified in Sewage Sludge and Subsequent in Vitro and in Vivo Characterization of Metabolic Effects of Triphenyl Phosphate” (Environmental Health Perspectives, 2025):
Several values for one entry are separate records, joined by “and”; a condition that tells them apart may be missing. Equal entries are not always repeated. Structures can show the parent of a compound that is named as a salt. Where two headings read alike, the source gives them in different places. Values belong to the molecule of their own block, whether it stands above or below them.

Legend:
[1] = biological target: T1, FXR (pCDNA3.1-hFXR, FXRE-luc) (Homo sapiens, UniProt Q96RI1); test: cell-based; assay type: cell-based
T1 construct: host or cells: HEK 293T
T1 sequence (Q96RI1 1-486): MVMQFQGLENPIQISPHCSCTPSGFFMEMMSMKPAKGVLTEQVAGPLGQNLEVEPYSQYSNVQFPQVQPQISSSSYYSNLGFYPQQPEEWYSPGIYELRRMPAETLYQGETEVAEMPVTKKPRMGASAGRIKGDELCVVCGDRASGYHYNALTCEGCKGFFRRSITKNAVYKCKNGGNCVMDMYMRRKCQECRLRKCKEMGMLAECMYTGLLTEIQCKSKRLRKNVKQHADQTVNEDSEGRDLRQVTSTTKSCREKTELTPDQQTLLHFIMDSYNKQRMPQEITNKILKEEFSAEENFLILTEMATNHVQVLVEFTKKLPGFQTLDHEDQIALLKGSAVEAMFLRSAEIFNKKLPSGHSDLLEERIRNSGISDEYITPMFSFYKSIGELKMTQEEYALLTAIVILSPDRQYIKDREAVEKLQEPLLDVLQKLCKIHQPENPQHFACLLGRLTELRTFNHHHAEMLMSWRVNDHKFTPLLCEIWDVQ

[2] = biological target: T2, human FXR-LBD (GST-FXR-LBD) (Homo sapiens, UniProt Q96RI1); test: HTRF coactivator recruitment assay, antagonist mode (in the presence of 50 μM CDCA); assay type: biochemical; conditions: for activity at 0.98 µM / activity at 1.95 µM / activity at 3.9 µM / activity at 7.8 µM / activity at 31.25 µM / activity at 62.5 µM / activity at 125 µM / activity at 250 µM / activity at […]: read-out: Relative antagonist activity (%); for IC50: read-out: IC50, inhibition of CDCA-induced coactivator recruitment to FXR; for Relative activity, antagonist mode: 50 μM compound in the presence of 50 μM CDCA, standardized against positive control DY268 (50 μM = 100%)
T2 construct: the human FXR-LBD (residues 234–472) was expressed as a GST fusion protein GST-FXR-LBD; made in house; host or cells: E. coli BL21(DE3)
T2 sequence (Q96RI1 234-472 isoform Q96RI1-2): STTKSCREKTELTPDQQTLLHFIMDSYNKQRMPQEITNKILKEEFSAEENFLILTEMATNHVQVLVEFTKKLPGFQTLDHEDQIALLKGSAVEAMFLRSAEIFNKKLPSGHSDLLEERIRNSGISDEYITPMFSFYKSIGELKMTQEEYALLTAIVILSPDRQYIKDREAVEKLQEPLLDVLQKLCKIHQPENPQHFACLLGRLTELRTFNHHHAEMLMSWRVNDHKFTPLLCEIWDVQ

[3] = biological target: T2, human FXR-LBD (GST-FXR-LBD); test: HTRF coactivator recruitment assay, agonist mode; assay type: biochemical
[4] = 10 μM compound in the presence of 50 μM CDCA, DMSO 0%, 50 μM CDCA 100%, HEK 293T, replicates
[5] = 25 μM compound in the presence of 50 μM CDCA, DMSO 0%, 50 μM CDCA 100%, HEK 293T, replicates
[6] = 0.98 μM compound + 50 μM CDCA, replicates
[7] = 1.95 μM compound + 50 μM CDCA, replicates
[8] = 3.90 μM compound + 50 μM CDCA, replicates
[9] = 7.80 μM compound + 50 μM CDCA, replicates
[10] = 31.25 μM compound + 50 μM CDCA, replicates
[11] = 62.50 μM compound + 50 μM CDCA, replicates
[12] = 125.00 μM compound + 50 μM CDCA, replicates
[13] = 250.00 μM compound + 50 μM CDCA, standardized to DMSO and 50 μM CDCA, replicates
[14] = […] compound + 50 μM CDCA, replicates
[15] = 50 μM compound, standardized against positive control CDCA (50 μM = 100%)
[16] = 10 μM and 25 μM, in the presence of 50 μM CDCA, HEK 293T
[17] = HEK-293T, read-out: Relative luciferase activity (%)

Structure (SMILES): CCCCCCCC/C=C\CCCCCCCC(=O)NCCO [OEA, oleoyl ethanolamide]
Relative luciferase activity (%) [1, 4]: 99.0% and 100.1% and 128.0%
Relative luciferase activity (%) [1, 5]: 96.5% and 110.1%
activity at 25 µM ([1]; HEK-293T, 25 μM compound in the presence of 50 μM CDCA, DMSO 0%, 50 μM CDCA 100%, HEK 293T, replicates, read-out: Relative luciferase activity (%)): 110%
activity at 0.98 µM [2, 6]: 106%
activity at 1.95 µM [2, 7]: 114%
activity at 3.9 µM [2, 8]: 110%
activity at 7.8 µM [2, 9]: 110%
activity at 31.25 µM [2, 10]: 102%
activity at 62.5 µM [2, 11]: 101%
activity at 125 µM [2, 12]: 96.2%
activity at 250 µM [2, 13]: 89.5%
activity at […] [2, 14]: 104%
IC50 [2]: 34 µM
Relative activity, agonist mode [3]: 0.00%

activity at 0.01 µM ([1]; HEK-293T, 0.01 μM, dose-response, replicates, read-out: Relative luciferase activity (%)): 96.6%
activity at 0.1 µM ([1]; HEK-293T, 0.1 μM, dose-response, replicates, read-out: Relative luciferase activity (%)): 81%
activity at 0.5 µM ([1]; HEK-293T, 0.5 μM, dose-response, replicates, read-out: Relative luciferase activity (%)): 81%
activity at 1 µM ([1]; HEK-293T, 1 μM, dose-response, replicates, read-out: Relative luciferase activity (%)): 79.6%
activity at 5 µM ([1]; HEK-293T, 5 μM, dose-response, replicates, read-out: Relative luciferase activity (%)): 66.4%
activity at 10 µM ([1]; HEK-293T, 10 μM, dose-response, replicates, read-out: Relative luciferase activity (%)): 53.9%
activity at 25 µM ([1]; HEK-293T, 25 μM, dose-response, replicates, read-out: Relative luciferase activity (%)): 30.5%
activity at 50 µM ([1]; HEK-293T, 50 μM, dose-response, replicates, read-out: Relative luciferase activity (%)): 29.9%
Structure (SMILES): C/C=C1\C(=O)C[C@H]2[C@@H]3CCC4=CC(=O)CC[C@]4(C)[C@H]3CC[C@]12C [GS, guggulsterone]

Relative activity, antagonist mode [2]: 18.06%
Relative activity, agonist mode [3, 15]: 0.085%
Structure (SMILES): CC(C)(C)CC(C)(C)c1ccc(O)c(-n2nc3ccccc3n2)c1 [UV329, octrizole]

Relative luciferase activity (%) ([1]; 0.001 μM, dose-response, replicates): 91.11% and 96.02% and 92.43%
Relative luciferase activity (%) ([1]; 0.01 μM, dose-response, replicates): 84.90% and 84.00% and 97.07%
Relative luciferase activity (%) ([1]; 0.05 μM, dose-response, replicates): 69.60% and 78.44% and 89.94%
Relative luciferase activity (%) ([1]; 0.1 μM, dose-response, replicates): 57.18% and 63.12% and 63.84%
Relative luciferase activity (%) ([1]; 0.5 μM, dose-response, replicates): 12.17% and 13.75% and 19.14%
Relative luciferase activity (%) ([1]; 1 μM, dose-response, replicates): -1.72% and -0.13% and 6.23%
Relative luciferase activity (%) ([1]; 5 μM, dose-response, replicates): -18.25% and -19.25% and -13.03%
Relative luciferase activity (%) ([1]; 10 μM, dose-response, replicates): -15.95% and -18.33% and -14.15%
Rate of FXR inhibition at the maximum exposure concentration ([1]; HEK 293T DLR assay, maximum exposure concentration): 116.14%
IC50 ([1]; HEK 293T cell-based DLR assay, read-out: IC50, inhibition of FXR transcriptional activity): 0.25 µM
Relative activity, antagonist mode [2]: 100.00%
Structure (SMILES): COc1cccc(Cn2cc(C(=O)Nc3ccc(C)c(S(=O)(=O)N4CCOCC4)c3)c(-c3ccc(C)cc3)n2)c1 [DY268]

Structure (SMILES): N#Cc1nn(-c2c(Cl)cc(C(F)(F)F)cc2Cl)c(N)c1S(=O)(=O)C(F)(F)F [FIP-S, fipronil sulfone]
Relative activity, antagonist mode [2]: 13.98%
Relative activity, agonist mode [3]: 2.06%

Luciferase activity compared with DMSO control (in words) [1, 16]: significantly less luciferase activity
Relative luciferase activity (%) [1, 4]: 29.3% and 36.3%
Relative luciferase activity (%) [1, 5]: 36.4% and 33.0% and 15.9%
activity at 10 µM ([1]; HEK-293T, 10 μM compound in the presence of 50 μM CDCA, DMSO 0%, 50 μM CDCA 100%, HEK 293T, replicates, read-out: Relative luciferase activity (%)): 26.9%
Relative antagonist activity (%) [2, 6]: 83.56% and 97.08%
activity at 0.98 µM [2, 6]: 100%
Relative antagonist activity (%) [2, 7]: 96.79% and 93.64%
activity at 1.95 µM [2, 7]: 101%
Relative antagonist activity (%) [2, 8]: 97.17% and 94.87%
activity at 3.9 µM [2, 8]: 94.6%
Relative antagonist activity (%) [2, 9]: 92.66% and 89.45%
activity at 7.8 µM [2, 9]: 91%
Relative antagonist activity (%) [2, 10]: 63.55% and 62.84%
activity at 31.25 µM [2, 10]: 61.1%
Relative activity, antagonist mode [2]: 80.64%
Relative antagonist activity (%) [2, 11]: 18.58% and 19.89%
activity at 62.5 µM [2, 11]: 20.8%
Relative antagonist activity (%) [2, 12]: -1.08% and -0.91% and -0.84%
Relative antagonist activity (%) [2, 13]: -2.04% and -2.11% and -2.16%
activity at […] [2, 14]: 82%
IC50 [2]: 40.6 µM
Relative activity, agonist mode [3, 15]: 1.60%
Structure (SMILES): O=C1Nc2ccc(Cl)cc2[C@@](C#CC2CC2)(C(F)(F)F)O1 [EFV, efavirenz]

Structure (SMILES): CC1COC(=O)c2cc3c(cc21)C(C)(C)C(C)C3(C)C (centres unmarked) [GAX, galaxolidone]
Relative activity, antagonist mode [2]: 14.46%
Relative activity, agonist mode [3]: 0.32%

Structure (SMILES): CCCCC(CC)COC(=O)c1ccccc1C(=O)OCC(CC)CCCC (centres unmarked) [DEHP, bis(2-ethylhexyl) phthalate]
Relative activity, antagonist mode [2]: 4.48%
Relative activity, agonist mode [3]: 0.27%

Relative activity, antagonist mode [2]: 12.58%
Relative activity, agonist mode [3, 15]: 2.49%
Structure (SMILES): CCCCOC(=O)CC(CC(=O)OCCCC)(OC(C)=O)C(=O)OCCCC [ATBC, acetyl tributyl citrate]

Structure (SMILES): CCCCC(CC)COP(=O)(OCC(CC)CCCC)OCC(CC)CCCC (centres unmarked) [TEHP, tris(2-ethylhexyl) phosphate]
Relative activity, antagonist mode [2]: 17.25%
Relative activity, agonist mode [3]: 0.00%

Relative activity, antagonist mode [2]: 6.36%
Relative activity, agonist mode [3, 15]: 0.19%
Structure (SMILES): CC(C)(C)c1cc(C=O)cc(C(C)(C)C)c1O [BHT-C, 3,5-Ditert-butyl-4-hydroxybenzaldehyde]

Structure (SMILES): Oc1cc(Cl)ccc1Oc1ccc(Cl)cc1Cl [TLS, triclosan]
Luciferase activity compared with DMSO control (in words) [1]: significantly less luciferase activity
activity at 10 µM [1, 17]: 24.8%
activity at 1.95 µM [2, 7]: 91.4%
activity at 3.9 µM [2, 8]: 87.5%
activity at 31.25 µM [2, 10]: 34.6%
Relative activity, antagonist mode [2]: 65.82%
activity at 62.5 µM [2, 11]: 4.81%
IC50 [2]: 28.2 µM
activity at 0.98 µM [2]: 91%
activity at 7.8 µM [2]: 79.8%
activity at […] [2]: 61.3%
Relative activity, agonist mode [3]: 13.3% and 13.26%

Structure (SMILES): O=C(Nc1ccc(Cl)cc1)Nc1ccc(Cl)c(Cl)c1 [TCC, triclocarban]
Relative activity, antagonist mode [2]: 10.80%
Relative activity, agonist mode [3]: 0.44%

Structure (SMILES): CC(=O)c1cc2c(cc1C)C(C)(C)C(C)CC2(C)C (centres unmarked) [AHTN, tonalid]
Luciferase activity compared with DMSO control (in words) [1]: significantly less luciferase activity
activity at 25 µM [1, 17]: 40.1%
activity at 1.95 µM [2, 7]: 96.2%
activity at 3.9 µM [2, 8]: 93.9%
activity at 31.25 µM [2, 10]: 80.9%
Relative activity, antagonist mode [2]: 48.54%
activity at 62.5 µM [2, 11]: 61.4%
activity at 250 µM [2, 13]: 31.2%
IC50 [2]: 59.5 µM
activity at 0.98 µM [2]: 93.5%
activity at 7.8 µM [2]: 94.1%
activity at 125 µM [2]: 41.4%
activity at […] [2]: 89.3%
Relative activity, agonist mode [3]: 2.19%

Structure (SMILES): Clc1ccc(COC(Cn2ccnc2)c2ccc(Cl)cc2Cl)c(Cl)c1 (centres unmarked) [MCZ, miconazole]
Luciferase activity compared with DMSO control (in words) [1, 16]: significantly less luciferase activity
Relative luciferase activity (%) [1, 4]: 93.6% and 60.3% and 85.8%
Relative luciferase activity (%) [1, 5]: 77.5% and 67.2% and 91.8%
activity at 0.98 µM [2, 6]: 101%
activity at 1.95 µM [2, 7]: 96.5%
activity at 3.9 µM [2, 8]: 92.9%
activity at 7.8 µM [2, 9]: 77.8%
activity at 31.25 µM [2, 10]: 31.7%
activity at 62.5 µM [2, 11]: 15.9%
activity at 125 µM [2, 12]: 4.54%
activity at 250 µM [2, 13]: 2.51%
activity at […] [2, 14]: 61.6%
IC50 [2]: 20.5 µM
Relative activity, agonist mode [3, 15]: 0.00%

Relative activity, antagonist mode [2]: 3.94%
Relative activity, agonist mode [3, 15]: 0.57%
Structure (SMILES): CCCCCCCCCCCCCCCC(=O)NCCO [PEA, palmitoyl ethanolamide]
